Tests used:
MELK = molecular target: T1, MELK (Homo sapiens, UniProt Q14680); assay: Proqinase Kinase profiling; format: biochemical; details: read-out: % inhibition at 100nM
T1 construct: purchased DiscoverX

ACVR2B = molecular target: T2, ACVR2B (Homo sapiens, UniProt Q13705); assay: Proqinase Kinase profiling; format: biochemical; details: read-out: % inhibition at 100nM
T2 construct: T7 phage fusion (or DNA tag for qPCR if made in HEK-293); purchased DiscoverX; host or cells: E. coli (T7 phage) or HEK-293

NEK9 = molecular target: T3, NEK9 (Homo sapiens, UniProt Q8TD19); assay: Proqinase Kinase profiling; format: biochemical; details: read-out: % inhibition at 100nM
T3 construct: purchased DiscoverX

CDK1_cyclinB = molecular target: T4, CDK1_cyclinB (Homo sapiens, UniProt P06493); assay: Proqinase Kinase profiling; format: biochemical; details: read-out: % inhibition at 100nM
T4 construct: purchased DiscoverX

PASK = molecular target: T5, PASK (Homo sapiens, UniProt Q96RG2); assay: Proqinase Kinase profiling; format: biochemical; details: read-out: % inhibition at 100nM
T5 construct: purchased DiscoverX

FLT3_ITD = assay: Proqinase Kinase profiling; format: biochemical
PTK2 = molecular target: T6, PTK2 (Homo sapiens, UniProt Q05397); assay: Proqinase Kinase profiling; format: biochemical; details: read-out: % inhibition at 100nM
T6 construct: purchased DiscoverX

MAPK14 = molecular target: T7, MAPK14 (Homo sapiens, UniProt Q16539); assay: Proqinase Kinase profiling; format: biochemical; details: read-out: % inhibition at 100nM
T7 construct: purchased DiscoverX

MKNK1 = molecular target: T8, MKNK1 (Homo sapiens, UniProt Q9BUB5); assay: Proqinase Kinase profiling; format: biochemical; details: read-out: % inhibition at 100nM
T8 construct: purchased DiscoverX

MET_M1250T = molecular target: T9, MET_M1250T (Homo sapiens, UniProt P08581, M1250T); assay: Proqinase Kinase profiling; format: biochemical; details: read-out: % inhibition at 100nM
T9 construct: purchased DiscoverX

PRKD3 = molecular target: T10, PRKD3 (Homo sapiens, UniProt O94806); assay: Proqinase Kinase profiling; format: biochemical; details: read-out: % inhibition at 100nM
T10 construct: purchased DiscoverX

FGFR1_V561M = molecular target: T11, FGFR1_V561M (Homo sapiens, UniProt P11362, V561M); assay: Proqinase Kinase profiling; format: biochemical; details: read-out: % inhibition at 100nM
T11 construct: purchased DiscoverX

MET_Y1230H = molecular target: T12, MET_Y1230H (Homo sapiens, UniProt P08581, Y1230H); assay: Proqinase Kinase profiling; format: biochemical; details: read-out: % inhibition at 100nM
T12 construct: purchased DiscoverX

CDK7_cyclinH_MAT1 = molecular target: T13, CDK7_cyclinH_MAT1 (Homo sapiens, UniProt P50613); assay: Proqinase Kinase profiling; format: biochemical; details: read-out: % inhibition at 100nM
T13 construct: purchased DiscoverX

ACVRL1 = molecular target: T14, ACVRL1 (Homo sapiens, UniProt P37023); assay: Proqinase Kinase profiling; format: biochemical; details: read-out: % inhibition at 100nM
T14 construct: purchased DiscoverX

MARK4 = molecular target: T15, MARK4 (Homo sapiens, UniProt Q96L34); assay: Proqinase Kinase profiling; format: biochemical; details: read-out: % inhibition at 100nM
T15 construct: purchased DiscoverX

DCLK2 = molecular target: T16, DCLK2 (Homo sapiens, UniProt Q8N568); assay: Proqinase Kinase profiling; format: biochemical; details: read-out: % inhibition at 100nM
T16 construct: purchased DiscoverX

NTRK1 = molecular target: T17, NTRK1 (Homo sapiens, UniProt P04629); assay: Proqinase Kinase profiling; format: biochemical; details: read-out: % inhibition at 100nM
T17 construct: purchased DiscoverX

MET_Y1235D = molecular target: T18, MET_Y1235D (Homo sapiens, UniProt P08581, Y1235D); assay: Proqinase Kinase profiling; format: biochemical; details: read-out: % inhibition at 100nM
T18 construct: purchased DiscoverX

STK24 = molecular target: T19, STK24 (Homo sapiens, UniProt Q9Y6E0); assay: Proqinase Kinase profiling; format: biochemical; details: read-out: % inhibition at 100nM
T19 construct: purchased DiscoverX

MST1R = molecular target: T20, MST1R (Homo sapiens, UniProt Q04912); assay: Proqinase Kinase profiling; format: biochemical; details: read-out: % inhibition at 100nM
T20 construct: purchased DiscoverX

FLT4 = molecular target: T21, FLT4 (Homo sapiens, UniProt P35916); assay: Proqinase Kinase profiling; format: biochemical; details: read-out: % inhibition at 100nM
T21 construct: purchased DiscoverX

AKT2 = molecular target: T22, AKT2 (Homo sapiens, UniProt P31751); assay: Proqinase Kinase profiling; format: biochemical; details: read-out: % inhibition at 100nM
T22 construct: purchased DiscoverX

HIPK2 = molecular target: T23, HIPK2 (Homo sapiens, UniProt Q9H2X6); assay: Proqinase Kinase profiling; format: biochemical; details: read-out: % inhibition at 100nM
T23 construct: purchased DiscoverX

MAP3K3 = molecular target: T24, MAP3K3 (Homo sapiens, UniProt Q99759); assay: Proqinase Kinase profiling; format: biochemical; details: read-out: % inhibition at 100nM
T24 construct: purchased DiscoverX

PRKCA = molecular target: T25, PRKCA (Homo sapiens, UniProt P17252); assay: Proqinase Kinase profiling; format: biochemical; details: read-out: % inhibition at 100nM
T25 construct: purchased DiscoverX

BMP-6-induced p-Smad1/5 = assay: Western blot of p-Smad1/5 in KS483 cells; format: cell-based, mouse
Experimental: Compounds were added for 16 hours at 0.5μM before luciferase activity was measured.
Cells were seeded into 6-well plates and cultured till they reached confluence. Next, cells were stimulated as indicated and then washed with cold PBS. […] Electrophoresis was performed in 10% SDS/polyacrylamide gels. Separated proteins were transferred to nitrocellulose membranes (0.5 A at 100 V; in ice) for 1 hour. Blots were blocked in Tris-Buffered Saline solution containing 0.1% Tween 20 and 5% non-fat dry milk overnight at 4 °C, and immune-detection of specific proteins was carried out with primary antibodies (see above) followed by horseradish peroxidase-conjugated anti-mouse or anti-rabbit (GE Healthcare, Eindhoven, The Netherlands) secondary antibodies using an ECL system (Fisher Scientific, Landsmeer, The Netherlands).

PRKCH = molecular target: T26, PRKCH (Homo sapiens, UniProt P24723); assay: Proqinase Kinase profiling; format: biochemical; details: read-out: % inhibition at 100nM
T26 construct: purchased DiscoverX

WNK2 = molecular target: T27, WNK2 (Homo sapiens, UniProt Q9Y3S1); assay: Proqinase Kinase profiling; format: biochemical; details: read-out: % inhibition at 100nM
T27 construct: purchased DiscoverX

MARK3 = molecular target: T28, MARK3 (Homo sapiens, UniProt P27448); assay: Proqinase Kinase profiling; format: biochemical; details: read-out: % inhibition at 100nM
T28 construct: purchased DiscoverX

MAP2K6 = molecular target: T29, MAP2K6 (Homo sapiens, UniProt P52564); assay: Proqinase Kinase profiling; format: biochemical; details: read-out: % inhibition at 100nM
T29 construct: purchased DiscoverX

ABL1_E255K = molecular target: T30, ABL1_E255K (Homo sapiens, UniProt P00519, E255K); assay: Proqinase Kinase profiling; format: biochemical; details: read-out: % inhibition at 100nM
T30 construct: purchased DiscoverX

CAMK2A = molecular target: T31, CAMK2A (Homo sapiens, UniProt Q9UQM7); assay: Proqinase Kinase profiling; format: biochemical; details: read-out: % inhibition at 100nM
T31 construct: purchased DiscoverX

DDR2 = molecular target: T32, DDR2 (Homo sapiens, UniProt Q16832); assay: Proqinase Kinase profiling; format: biochemical; details: read-out: % inhibition at 100nM
T32 construct: purchased DiscoverX

KIT_T670I = molecular target: T33, KIT_T670I (Homo sapiens, UniProt P10721, T670I); assay: Proqinase Kinase profiling; format: biochemical; details: read-out: % inhibition at 100nM
T33 construct: purchased DiscoverX

FGFR3 = molecular target: T34, FGFR3 (Homo sapiens, UniProt P22607); assay: Proqinase Kinase profiling; format: biochemical; details: read-out: % inhibition at 100nM
T34 construct: purchased DiscoverX

ALK_L1196M = molecular target: T35, ALK_L1196M (Homo sapiens, UniProt Q9UM73, L1196M); assay: Proqinase Kinase profiling; format: biochemical; details: read-out: % inhibition at 100nM
T35 construct: purchased DiscoverX

PRKACA = molecular target: T36, PRKACA (Homo sapiens, UniProt P17612); assay: Proqinase Kinase profiling; format: biochemical; details: read-out: % inhibition at 100nM
T36 construct: purchased DiscoverX

T18 sequence (P08581 25-1390 Y1235D): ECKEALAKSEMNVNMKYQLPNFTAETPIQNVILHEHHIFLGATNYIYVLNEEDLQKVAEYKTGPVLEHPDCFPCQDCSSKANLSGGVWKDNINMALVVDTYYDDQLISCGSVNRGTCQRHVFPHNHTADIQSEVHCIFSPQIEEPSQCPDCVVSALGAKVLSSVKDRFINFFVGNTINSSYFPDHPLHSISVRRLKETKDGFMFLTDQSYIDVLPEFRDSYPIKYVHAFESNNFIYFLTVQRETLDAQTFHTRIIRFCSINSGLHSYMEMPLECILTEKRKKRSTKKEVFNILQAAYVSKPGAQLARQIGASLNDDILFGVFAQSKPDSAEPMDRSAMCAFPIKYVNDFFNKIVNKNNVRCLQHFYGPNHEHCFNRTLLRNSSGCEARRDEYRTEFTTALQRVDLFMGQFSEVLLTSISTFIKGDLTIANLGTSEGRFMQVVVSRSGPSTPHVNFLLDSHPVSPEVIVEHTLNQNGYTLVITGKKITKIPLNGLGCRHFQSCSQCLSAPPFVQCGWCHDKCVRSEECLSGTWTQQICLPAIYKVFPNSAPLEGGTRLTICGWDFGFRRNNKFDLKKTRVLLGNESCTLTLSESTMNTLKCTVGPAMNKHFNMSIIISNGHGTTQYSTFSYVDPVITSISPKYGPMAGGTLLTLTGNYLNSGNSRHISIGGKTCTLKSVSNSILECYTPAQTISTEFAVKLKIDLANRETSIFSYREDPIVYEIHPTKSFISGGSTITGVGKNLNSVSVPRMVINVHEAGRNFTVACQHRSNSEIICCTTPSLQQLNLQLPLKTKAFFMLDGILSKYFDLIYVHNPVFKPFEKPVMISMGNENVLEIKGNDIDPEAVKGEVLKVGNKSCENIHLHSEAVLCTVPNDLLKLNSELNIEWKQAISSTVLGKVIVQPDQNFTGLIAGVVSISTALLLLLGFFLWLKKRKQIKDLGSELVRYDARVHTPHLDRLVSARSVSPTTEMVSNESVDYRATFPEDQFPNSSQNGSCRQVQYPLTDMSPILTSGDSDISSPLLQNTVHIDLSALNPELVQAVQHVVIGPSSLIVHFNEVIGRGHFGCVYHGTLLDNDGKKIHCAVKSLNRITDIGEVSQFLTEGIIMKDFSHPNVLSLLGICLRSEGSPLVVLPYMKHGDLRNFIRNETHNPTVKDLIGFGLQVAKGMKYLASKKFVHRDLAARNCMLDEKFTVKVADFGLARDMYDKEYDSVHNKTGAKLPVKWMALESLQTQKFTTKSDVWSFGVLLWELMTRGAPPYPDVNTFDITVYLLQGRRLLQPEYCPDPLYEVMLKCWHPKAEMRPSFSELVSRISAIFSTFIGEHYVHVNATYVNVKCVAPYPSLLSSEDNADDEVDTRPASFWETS
T2 sequence (Q13705 19-512): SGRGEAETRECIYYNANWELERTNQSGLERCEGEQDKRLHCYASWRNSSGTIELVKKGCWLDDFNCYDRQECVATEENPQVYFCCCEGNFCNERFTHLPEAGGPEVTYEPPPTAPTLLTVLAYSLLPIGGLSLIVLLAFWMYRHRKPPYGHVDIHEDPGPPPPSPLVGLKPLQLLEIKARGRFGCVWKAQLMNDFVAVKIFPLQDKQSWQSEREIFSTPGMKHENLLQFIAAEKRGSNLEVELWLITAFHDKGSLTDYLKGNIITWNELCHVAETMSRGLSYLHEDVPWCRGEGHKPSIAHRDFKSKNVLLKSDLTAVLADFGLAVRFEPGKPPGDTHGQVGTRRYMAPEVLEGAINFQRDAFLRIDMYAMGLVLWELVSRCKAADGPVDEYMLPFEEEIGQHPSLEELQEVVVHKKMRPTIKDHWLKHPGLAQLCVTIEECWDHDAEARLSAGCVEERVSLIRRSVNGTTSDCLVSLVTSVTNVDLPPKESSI
T3 sequence (Q8TD19 whole entry): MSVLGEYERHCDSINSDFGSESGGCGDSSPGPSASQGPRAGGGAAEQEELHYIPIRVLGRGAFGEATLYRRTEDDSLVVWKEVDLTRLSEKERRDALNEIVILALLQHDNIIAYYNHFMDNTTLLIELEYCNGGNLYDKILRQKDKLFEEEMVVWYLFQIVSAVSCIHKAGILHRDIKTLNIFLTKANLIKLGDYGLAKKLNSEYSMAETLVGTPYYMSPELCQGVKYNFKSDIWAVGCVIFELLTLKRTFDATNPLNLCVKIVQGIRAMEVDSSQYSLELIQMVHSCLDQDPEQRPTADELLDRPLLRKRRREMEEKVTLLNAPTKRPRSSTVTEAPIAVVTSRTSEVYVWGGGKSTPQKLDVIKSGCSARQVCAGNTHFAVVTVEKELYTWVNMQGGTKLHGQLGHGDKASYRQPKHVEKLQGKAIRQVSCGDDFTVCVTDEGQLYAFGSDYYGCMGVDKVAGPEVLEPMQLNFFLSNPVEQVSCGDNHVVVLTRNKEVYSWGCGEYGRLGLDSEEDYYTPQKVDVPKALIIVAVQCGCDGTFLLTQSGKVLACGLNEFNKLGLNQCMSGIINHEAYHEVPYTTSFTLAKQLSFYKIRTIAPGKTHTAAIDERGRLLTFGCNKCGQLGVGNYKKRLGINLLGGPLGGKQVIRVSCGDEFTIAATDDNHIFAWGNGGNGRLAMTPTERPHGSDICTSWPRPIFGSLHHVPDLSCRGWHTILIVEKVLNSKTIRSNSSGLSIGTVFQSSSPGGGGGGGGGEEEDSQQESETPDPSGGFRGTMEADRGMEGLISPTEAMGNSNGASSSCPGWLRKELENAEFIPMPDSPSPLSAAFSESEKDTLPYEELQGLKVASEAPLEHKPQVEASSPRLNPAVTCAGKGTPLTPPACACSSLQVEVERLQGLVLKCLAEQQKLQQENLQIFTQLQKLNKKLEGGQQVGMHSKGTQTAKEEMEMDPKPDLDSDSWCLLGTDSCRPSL
T7 sequence (Q16539 whole entry): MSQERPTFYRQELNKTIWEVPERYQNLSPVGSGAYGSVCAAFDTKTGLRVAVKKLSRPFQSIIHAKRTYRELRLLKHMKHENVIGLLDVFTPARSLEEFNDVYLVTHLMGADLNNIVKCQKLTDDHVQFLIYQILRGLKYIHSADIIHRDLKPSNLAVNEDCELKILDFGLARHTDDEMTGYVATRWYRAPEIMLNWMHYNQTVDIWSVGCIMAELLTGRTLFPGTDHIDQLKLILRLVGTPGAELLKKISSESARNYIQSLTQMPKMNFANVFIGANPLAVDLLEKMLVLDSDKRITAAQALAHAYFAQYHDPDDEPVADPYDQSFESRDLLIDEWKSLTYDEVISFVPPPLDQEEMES
T5 sequence (Q96RG2 whole entry): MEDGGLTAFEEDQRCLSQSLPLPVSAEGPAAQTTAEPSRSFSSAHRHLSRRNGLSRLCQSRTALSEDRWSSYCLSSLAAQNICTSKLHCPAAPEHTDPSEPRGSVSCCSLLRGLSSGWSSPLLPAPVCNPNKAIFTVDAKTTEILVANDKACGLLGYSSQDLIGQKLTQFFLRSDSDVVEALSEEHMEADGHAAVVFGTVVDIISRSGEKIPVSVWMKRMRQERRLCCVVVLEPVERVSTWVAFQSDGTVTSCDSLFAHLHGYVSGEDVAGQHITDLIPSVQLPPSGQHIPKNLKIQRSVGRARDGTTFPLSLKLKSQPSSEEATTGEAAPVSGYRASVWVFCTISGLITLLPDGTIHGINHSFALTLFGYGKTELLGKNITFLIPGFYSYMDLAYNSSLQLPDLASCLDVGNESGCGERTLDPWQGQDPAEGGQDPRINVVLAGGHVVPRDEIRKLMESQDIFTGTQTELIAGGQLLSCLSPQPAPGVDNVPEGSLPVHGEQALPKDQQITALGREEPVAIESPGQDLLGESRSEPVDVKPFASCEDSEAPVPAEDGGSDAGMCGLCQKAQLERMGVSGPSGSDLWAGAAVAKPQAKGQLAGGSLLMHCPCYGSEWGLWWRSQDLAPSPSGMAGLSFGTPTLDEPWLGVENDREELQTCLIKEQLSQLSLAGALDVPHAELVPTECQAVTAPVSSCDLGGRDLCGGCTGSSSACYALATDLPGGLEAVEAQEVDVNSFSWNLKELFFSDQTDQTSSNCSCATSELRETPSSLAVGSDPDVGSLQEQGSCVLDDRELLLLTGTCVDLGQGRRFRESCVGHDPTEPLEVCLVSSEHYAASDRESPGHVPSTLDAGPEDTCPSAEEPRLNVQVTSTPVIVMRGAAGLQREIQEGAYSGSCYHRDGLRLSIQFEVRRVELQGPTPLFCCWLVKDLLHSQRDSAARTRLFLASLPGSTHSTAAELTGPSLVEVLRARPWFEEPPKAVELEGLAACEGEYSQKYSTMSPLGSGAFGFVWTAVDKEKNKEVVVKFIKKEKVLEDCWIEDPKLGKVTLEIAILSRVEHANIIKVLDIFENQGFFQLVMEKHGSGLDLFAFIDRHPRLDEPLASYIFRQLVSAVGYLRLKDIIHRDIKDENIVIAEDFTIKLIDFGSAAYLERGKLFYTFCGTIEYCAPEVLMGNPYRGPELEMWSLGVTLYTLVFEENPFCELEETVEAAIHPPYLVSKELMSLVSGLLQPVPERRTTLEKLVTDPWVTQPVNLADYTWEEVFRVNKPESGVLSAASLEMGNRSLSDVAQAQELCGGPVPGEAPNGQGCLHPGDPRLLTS
T22 sequence (P31751 whole entry): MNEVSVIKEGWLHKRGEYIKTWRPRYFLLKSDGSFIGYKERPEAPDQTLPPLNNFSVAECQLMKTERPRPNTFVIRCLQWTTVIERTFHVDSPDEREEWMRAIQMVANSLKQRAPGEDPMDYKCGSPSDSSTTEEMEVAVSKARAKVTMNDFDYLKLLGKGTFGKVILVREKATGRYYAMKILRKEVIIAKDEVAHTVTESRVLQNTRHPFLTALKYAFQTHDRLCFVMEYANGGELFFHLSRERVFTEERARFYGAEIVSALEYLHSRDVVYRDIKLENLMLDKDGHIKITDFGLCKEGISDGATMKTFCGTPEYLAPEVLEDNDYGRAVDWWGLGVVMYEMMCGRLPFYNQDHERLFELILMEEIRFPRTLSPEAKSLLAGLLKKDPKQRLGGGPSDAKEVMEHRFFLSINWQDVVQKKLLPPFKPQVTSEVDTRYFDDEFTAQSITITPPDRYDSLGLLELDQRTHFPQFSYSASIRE

Row | Compound | inhibition at 0.1 µM (MELK) [%] | inhibition at 0.1 µM (ACVR2B) [%] | inhibition at 0.1 µM (NEK9) [%] | inhibition at 0.1 µM (CDK1_cyclinB) [%] | inhibition at 0.1 µM (PASK) [%] | % inhibition at 100nM (FLT3_ITD) [%] | inhibition at 0.1 µM (PTK2) [%] | inhibition at 0.1 µM (MAPK14) [%] | inhibition at 0.1 µM (MKNK1) [%] | inhibition at 0.1 µM (MET_M1250T) [%] | inhibition at 0.1 µM (PRKD3) [%] | inhibition at 0.1 µM (FGFR1_V561M) [%] | inhibition at 0.1 µM (MET_Y1230H) [%] | inhibition at 0.1 µM (CDK7_cyclinH_MAT1) [%] | inhibition at 0.1 µM (ACVRL1) [%] | inhibition at 0.1 µM (MARK4) [%] | inhibition at 0.1 µM (DCLK2) [%] | inhibition at 0.1 µM (NTRK1) [%] | inhibition at 0.1 µM (MET_Y1235D) [%] | inhibition at 0.1 µM (STK24) [%] | also measured
1 | Clc1cc2cc(c1)-c1cnn3ccc(nc13)NCCOCCO2 [OD36] | 21 | 90 | 1 | 9 | 3 | 36 | 18 | -4 | 23 | 12 | 2 | 9 | -3 | 0 | 88 | 13 | 11 | 14 | -5 | 8 | inhibition at 0.1 µM (MST1R): -3%; inhibition at 0.1 µM (FLT4): 44%; inhibition at 0.1 µM (AKT2): 2%; inhibition at 0.1 µM (HIPK2): 16%; inhibition at 0.1 µM (MAP3K3): 1%; inhibition at 0.1 µM (PRKCA): 26%; Inhibition of BMP-6-induced p-Smad1/5 (BMP-6-induced p-Smad1/5): efficiently inhibited; inhibition at 0.1 µM (PRKCH): 5%; inhibition at 0.1 µM (WNK2): 1%; inhibition at 0.1 µM (MARK3): 8%; inhibition at 0.1 µM (MAP2K6): 1%; inhibition at 0.1 µM (ABL1_E255K): -2%; inhibition at 0.1 µM (CAMK2A): 18%; inhibition at 0.1 µM (DDR2): 59%; inhibition at 0.1 µM (KIT_T670I): 9%; inhibition at 0.1 µM (FGFR3): 7%; inhibition at 0.1 µM (ALK_L1196M): -7%; inhibition at 0.1 µM (PRKACA): -3%
2 | Cc1cc2cc(c1)-c1cnn3ccc(nc13)NCCNC(=O)CCN(C)C2 [OD52] | 15 | 17 | -1 | 6 | 3 | 19 | -1 | 1 | -11 | -19 | 4 | -26 | -20 | -6 | 89 | -4 | 7 | 29 | -15 | 12 | inhibition at 0.1 µM (MST1R): -24%; inhibition at 0.1 µM (FLT4): -13%; inhibition at 0.1 µM (AKT2): -9%; inhibition at 0.1 µM (HIPK2): -2%; inhibition at 0.1 µM (MAP3K3): 13%; inhibition at 0.1 µM (PRKCA): 8%; Inhibition of BMP-6-induced p-Smad1/5 (BMP-6-induced p-Smad1/5): efficiently inhibited; inhibition at 0.1 µM (PRKCH): -20%; inhibition at 0.1 µM (WNK2): 17%; inhibition at 0.1 µM (MARK3): -1%; inhibition at 0.1 µM (MAP2K6): 6%; inhibition at 0.1 µM (ABL1_E255K): 7%; inhibition at 0.1 µM (CAMK2A): 25%; inhibition at 0.1 µM (DDR2): 6%; inhibition at 0.1 µM (KIT_T670I): -23%; inhibition at 0.1 µM (FGFR3): -9%; inhibition at 0.1 µM (ALK_L1196M): -6%; inhibition at 0.1 µM (PRKACA): -7%

From paper PMC6874179, “Development of Macrocycle Kinase Inhibitors for ALK2 Using Fibrodysplasia Ossificans Progressiva‐Derived Endothelial Cells” (JBMR Plus, 2019)
